Assay results published in patent publication US20240208939A1, “TREATMENT OF AUTOIMMUNE AND INFLAMMATORY DISORDERS WITH INHIBITORS OF BET FAMILY BDII BROMODOMAIN” (POSEIDON INNOVATION 1, INC., priority 2022, published 2024).

What was measured:
BRD4 BD2 = biological target: T1, BRD4 BD2 (Homo sapiens, UniProt O60885); test: Target Engagement Intracellular BET BRD Assay (NanoBRET); type: cell-based; details: read-out: BRD4 BD2 TE IC50
T1 construct: BD2 TE; expressed in transfected cells
Method: 3× Complete Substrate plus Inhibitor Solution in Assay Medium (Opti-MEM® I Reduced Serum Medium, no phenol red, and no serum) was prepared just before measuring BRET. This solution consisted of a 1:166 dilution of NanoBRET™ Nano-Glo® Substrate plus a 1:500 dilution of Extracellular NanoLuc® Inhibitor in Assay Medium. For a 96-well plate, 30 μl of NanoBRET™ Nano-Glo® Substrate, 10 μl of Extracellular NanoLuc® Inhibitor and 4,960 μl of Assay Medium were mixed to produce 5 ml of 3× Complete Substrate plus Inhibitor Solution, followed with gently mixing by inversion 5-10 times in a conical tube. (The final concentration of Extracellular NanoLuc® Inhibitor in the 3× solution was 60 μM, for a working concentration of 20 μM. Use 3× Complete Substrate plus Inhibitor Solution within 2 hours. Discard any remaining solution).
50 μl of 3× Complete Substrate plus Inhibitor Solution were added to each well of the 96-well plate, followed by incubation for 2-3 minutes at room temperature. Donor emission wavelength (e.g., 450 nm) and acceptor emission wavelength (e.g., 610 nm) were measured by using the GloMax® Discover System or other NanoBRET™ Assay-compatible luminometer (it is recommended measuring BRET within 10 minutes after adding NanoBRET™ Nano-Glo™ Substrate plus Extracellular NanoLuc® Inhibitor Solution. However, BRET can be measured for up to 2 hours, but there will be some loss of luminescence signal).
To generate raw BRET ratio values, the acceptor emission value (e.g., 610 nm) was divided by the donor emission value (e.g., 450 nm) for each sample [to correct for background, the BRET ratio was substracted in the absence of tracer (average of no-tracer control samples) from the BRET ratio of each sample]. Raw BRET units were converted to milliBRET units (mBU) by multiplying each raw BRET value by 1,000. NanoBRET™ ratio equation, including optional background correction is shown below:
BRET Ratio=[(Acceptorsample÷Donorsample)−(Acceptorno-tracer control÷Donorno-tracer control)]×1,000.

MCP-1 = test: PBMC MCP-1 HTRF Assay; type: cell-based; details: LPS 200 ng/mL, 24 hours
Method: The cryopreserved PBMC cells were thawed in a 37° C. water bath immediately after taking out from liquid nitrogen storage. A sterile pipette was used to transfer the content to sterile […] centrifuge tube containing […] of complete growth medium (Gibico 1640) and centrifuge at 300×g for 10 min. Supernatant was discarded, and cell pellet was resuspended in 10 mL of complete growth media in a sterile 15 mL tube. The cells were rested for 1 h at 37° C. (1×10^6 cells/mL). The cells were spinned down at 300×g for 10 minutes after 1 h. Supernatant was discard, and cell pellet was resuspended in complete growth medium, the cells number and viability were measured by AO/PI staining. In a 384-well white plate, PBMCs at 25 k cells/well (15 μl per well) were seeded with Gibico 1640 medium. The compound stock was serial diluted into […] by 3-fold dilution. 20 nL DMSO, 20 nL test compounds DMSO stock (serial diluted) were transferred in assay plate by using ECHO550, incubate for 30 min at 37° C., 5% CO2. LPS was diluted by Gibico 1640 medium.add 5 μl per well. The final concentration (200 ng/mL) was incubated for 24 hours at 37° C. with 5% CO2.
For MCP-1 HTRF, 2.5 μl/well MCP-1 donor antibody and 2.5 μl/well MCP-1 acceptor antibody were added into 384 well plate, following by centrifuging at 190×g for 1 min and incubating at room temperature for 2 h. The plate was read on the Envision.

| Structure (SMILES) | IC50 (BRD4 BD2) [nM] | IC50 (MCP-1) [nM] |
| --- | --- | --- |
| Cc1cc(-c2ccc(-n3ccn(C)c3=O)c(Cl)c2)c(O)c(-c2cccc(N3CCN(C(C)(C)C)CC3)c2)n1 [Example I-2, 1-(4-(2-(3-(4-(tert-butyl)piperazin-1-yl)phenyl)-3-hydroxy-6-methylpyridin-4-yl)-2-chlorophenyl)-3-methyl-1,3-dihydro-2H-imidazol-2-one] | 0.152 | 1.22 |
| COc1ncc(-c2nc(C)cc(-c3ccc(-n4ccn(C)c4=O)c(Cl)c3)c2O)cc1N1CCN(C(C)(C)C)CC1 [Example I-3, 1-(4-(5′-(4-(tert-butyl)piperazin-1-yl)-3-hydroxy-6′-methoxy-6-methyl-[2,3′-bipyridin]-4-yl)-2-chlorophenyl)-3-methyl-1,3-dihydro-2H-imidazol-2-one] | 4.5 | 4.4 |
| [2H]C([2H])([2H])n1ccn(-c2ccc(-c3cc(C)nc(-c4cccc(N5CCN(C(C)(C)C)CC5)c4)c3O)cc2Cl)c1=O [Example I-4, 1-(4-(2-(3-(4-(tert-butyl)piperazin-1-yl)phenyl)-3-hydroxy-6-methylpyridin-4-yl)-2-chlorophenyl)-3-(methyl-d3)-1,3-dihydro-2H-imidazol-2-one] | 10.2 | 1.72 |
| Cc1cc(-c2ccc(-n3ccn(C)c3=O)c(Cl)c2)c(N)c(-c2cccc(N3CCN(C(C)(C)C)CC3)c2)n1 [Example I-5, 1-(4-(3-amino-2-(3-(4-(tert-butyl)piperazin-1-yl)phenyl)-6-methylpyridin-4-yl)-2-chlorophenyl)-3-methyl-1,3-dihydro-2H-imidazol-2-one] | 0.473 | 0.583 |
| Cc1cc(-c2ccc(-n3ccn(C)c3=O)c(Cl)c2)c(O)c(-c2cc(Cl)cc(N3CCN(C(C)(C)C)CC3)c2)n1 [Example I-6, 1-(4-(2-(3-(4-(tert-butyl)piperazin-1-yl)-5-chlorophenyl)-3-hydroxy-6-methylpyridin-4-yl)-2-chlorophenyl)-3-methyl-1,3-dihydro-2H-imidazol-2-one] | 9.11 | 2.25 |
| Cc1cc(-c2ccc(-n3ccn(C)c3=O)c(Cl)c2)c(O)c(-c2ccc(F)c(N3CCN(C(C)(C)C)CC3)c2)n1 [Example I-7, 1-(4-(2-(3-(4-(tert-butyl)piperazin-1-yl)-4-fluorophenyl)-3-hydroxy-6-methylpyridin-4-yl)-2-chlorophenyl)-3-methyl-1,3-dihydro-2H-imidazol-2-one] | 11 | 1.79 |
| Cc1cc(-c2ccc(-n3ccn(C)c3=O)c(F)c2)c(O)c(-c2cccc(N3CCN(C(C)(C)C)CC3)c2)n1 [Example I-8, 1-(4-(2-(3-(4-(tert-butyl)piperazin-1-yl)phenyl)-3-hydroxy-6-methylpyridin-4-yl)-2-fluorophenyl)-3-methyl-1,3-dihydro-2H-imidazol-2-one] | 13 | 5.39 |
| Cc1cc(-c2ccc(-n3ccn(C)c3=O)c(Cl)c2)c(O)c(-c2cc(N3CCN(C(C)(C)C)CC3)n(C)c(=O)c2)n1 [Example I-9, 6′-(4-(tert-butyl)piperazin-1-yl)-4-(3-chloro-4-(3-methyl-2-oxo-2,3-dihydro-1H-imidazol-1-yl)phenyl)-3-hydroxy-1′,6-dimethyl-[2,4′-bipyridin]-2′(1′H)-one] | 87.2 | 66.3 |
| Cc1cc(-c2ccc(-n3ccn(C)c3=O)c(C)c2)c(O)c(-c2cccc(N3CCN(C(C)(C)C)CC3)c2)n1 [Example I-10, 1-(4-(2-(3-(4-(tert-butyl)piperazin-1-yl)phenyl)-3-hydroxy-6-methylpyridin-4-yl)-2-methylphenyl)-3-methyl-1,3-dihydro-2H-imidazol-2-one] | 7.59 | 1.46 |
| Cc1cc(-c2ccc(-n3ccn(C)c3=O)c(Cl)c2)c(O)c(-c2ccc(Cl)c(N3CCN(C(C)(C)C)CC3)c2)n1 [Example I-11, 1-(4-(2-(3-(4-(tert-butyl)piperazin-1-yl)-4-chlorophenyl)-3-hydroxy-6-methylpyridin-4-yl)-2-chlorophenyl)-3-methyl-1,3-dihydro-2H-imidazol-2-one] | 4.22 | 6.34 |
| Cc1cc(-c2ccc(-n3ccn(C)c3=O)c(Cl)c2)c(O)c(-c2cc(F)cc(N3CCN(C(C)(C)C)CC3)c2)n1 [Example I-12, 1-(4-(2-(3-(4-(tert-butyl)piperazin-1-yl)-5-fluorophenyl)-3-hydroxy-6-methylpyridin-4-yl)-2-chlorophenyl)-3-methyl-1,3-dihydro-2H-imidazol-2-one] | 4.31 | 4.72 |
| Cn1ccn(-c2ccc(-c3cc(F)nc(-c4cccc(N5CCN(C(C)(C)C)CC5)c4)c3O)cc2Cl)c1=O [Example I-13, 1-(4-(2-(3-(4-(tert-butyl)piperazin-1-yl)phenyl)-6-fluoro-3-hydroxypyridin-4-yl)-2-chlorophenyl)-3-methyl-1,3-dihydro-2H-imidazol-2-one] | 83.6 | 16.7 |
| Cn1ccn(-c2ccc(-c3ccnc(-c4cccc(N5CCN(C(C)(C)C)CC5)c4)c3O)cc2Cl)c1=O [Example I-14, 1-(4-(2-(3-(4-(tert-butyl)piperazin-1-yl)phenyl)-3-hydroxypyridin-4-yl)-2-chlorophenyl)-3-methyl-1,3-dihydro-2H-imidazol-2-one] | 68.5 | 21.1 |
| COc1ncc(-c2cc(F)cc(-c3ccc(-n4ccn(C)c4=O)c(Cl)c3)c2O)cc1N1CCN(C(C)(C)C)CC1 [Example I-15, 1-(3′-(5-(4-(tert-butyl)piperazin-1-yl)-6-methoxypyridin-3-yl)-3-chloro-5′-fluoro-2′-hydroxy-[1,1′-biphenyl]-4-yl)-3-methyl-1,3-dihydro-2H-imidazol-2-one] | 0.152 | 1.09 |
